Assay results: PubChem BioAssay (NCI)
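In this assay, cells in 96-well plates receive the compound at five concentrations for 48 hours. Endpoints are linearly interpolated between the surrounding concentrations. GI50 marks 50% less growth. TGI is the concentration that stops growth completely.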

Each compound was assayed on MDA-MB-231 breast (assay: inhibition of tumour cell growth, NCI panel, 48 h).

Row | Structure (SMILES) | GI50 | TGI
1 | Nc1nc(Nc2cccnc2)sc1C(=O)c1ccccc1F | 3.47 µM | > 100 µM
2 | COc1ccc2[nH]c3c4[nH]c5ccc(OC)cc5c4c4c(c3c2c1)C(=O)NC4=O | > 25 µM | > 25 µM
3 | CCOC(=O)c1c(N2CCOCC2)[nH]c(=O)c(C(c2c(Cl)cccc2Cl)c2c(O)c(C(=O)OCC)c(N3CCOCC3)[nH]c2=O)c1O |  | 24.9 µM
4 | CC/C=C\C[C@H](O)C/C=C1/C(=O)C=C[C@@H]1C/C=C\CCCC(=O)OC | 2.94 µM | 9.23 µM

Each compound was assayed on RXF 393 renal (assay: inhibition of tumour cell growth, NCI panel, 48 h).

Row | Structure (SMILES) | GI50 | TGI
5 | Nc1nc(Nc2cccnc2)sc1C(=O)c1ccccc1F | 1.9 µM | 4.39 µM
6 | COc1ccc2[nH]c3c4[nH]c5ccc(OC)cc5c4c4c(c3c2c1)C(=O)NC4=O |  | > 15.4 µM
7 | CCOC(=O)c1c(N2CCOCC2)[nH]c(=O)c(C(c2c(Cl)cccc2Cl)c2c(O)c(C(=O)OCC)c(N3CCOCC3)[nH]c2=O)c1O |  | 4.93 µM
8 | CC/C=C\C[C@H](O)C/C=C1/C(=O)C=C[C@@H]1C/C=C\CCCC(=O)OC | 1.91 µM | 3.58 µM

Each compound was assayed on SK-OV-3 ovarian (assay: inhibition of tumour cell growth, NCI panel, 48 h).

Row | Structure (SMILES) | GI50 | TGI
9 | Nc1nc(Nc2cccnc2)sc1C(=O)c1ccccc1F | 15.7 µM | > 100 µM
10 | COc1ccc2[nH]c3c4[nH]c5ccc(OC)cc5c4c4c(c3c2c1)C(=O)NC4=O | > 25 µM | > 25 µM
11 | CCOC(=O)c1c(N2CCOCC2)[nH]c(=O)c(C(c2c(Cl)cccc2Cl)c2c(O)c(C(=O)OCC)c(N3CCOCC3)[nH]c2=O)c1O |  | 24.9 µM
12 | CC/C=C\C[C@H](O)C/C=C1/C(=O)C=C[C@@H]1C/C=C\CCCC(=O)OC | 5.37 µM | 15.4 µM

These compounds were tested on IGROV1 ovarian (assay: inhibition of tumour cell growth, NCI panel, 48 h).

Row | Structure (SMILES) | GI50 | TGI
13 | Nc1nc(Nc2cccnc2)sc1C(=O)c1ccccc1F | 2.17 µM | > 29.1 µM
14 | COc1ccc2[nH]c3c4[nH]c5ccc(OC)cc5c4c4c(c3c2c1)C(=O)NC4=O | > 25 µM | > 25 µM
15 | CCOC(=O)c1c(N2CCOCC2)[nH]c(=O)c(C(c2c(Cl)cccc2Cl)c2c(O)c(C(=O)OCC)c(N3CCOCC3)[nH]c2=O)c1O |  | 15 µM
16 | CC/C=C\C[C@H](O)C/C=C1/C(=O)C=C[C@@H]1C/C=C\CCCC(=O)OC | 3.05 µM | 8.71 µM

Each compound was assayed on EKVX NSCLC (assay: inhibition of tumour cell growth, NCI panel, 48 h).

Row | Structure (SMILES) | GI50 | TGI
17 | Nc1nc(Nc2cccnc2)sc1C(=O)c1ccccc1F | 2.6 µM | 13.9 µM
18 | COc1ccc2[nH]c3c4[nH]c5ccc(OC)cc5c4c4c(c3c2c1)C(=O)NC4=O | > 25 µM | > 25 µM
19 | CCOC(=O)c1c(N2CCOCC2)[nH]c(=O)c(C(c2c(Cl)cccc2Cl)c2c(O)c(C(=O)OCC)c(N3CCOCC3)[nH]c2=O)c1O |  | 32.9 µM
20 | CC/C=C\C[C@H](O)C/C=C1/C(=O)C=C[C@@H]1C/C=C\CCCC(=O)OC | 3.11 µM | 12.4 µM

What follows are compounds tested on MDA-MB-435 (assay: inhibition of tumour cell growth, NCI panel, 48 h).

Row | Structure (SMILES) | GI50 | TGI
21 | Nc1nc(Nc2cccnc2)sc1C(=O)c1ccccc1F | 3.74 µM | 24.3 µM
22 | COc1ccc2[nH]c3c4[nH]c5ccc(OC)cc5c4c4c(c3c2c1)C(=O)NC4=O | > 12.6 µM | > 25 µM
23 | CCOC(=O)c1c(N2CCOCC2)[nH]c(=O)c(C(c2c(Cl)cccc2Cl)c2c(O)c(C(=O)OCC)c(N3CCOCC3)[nH]c2=O)c1O |  | 12.1 µM
24 | CC/C=C\C[C@H](O)C/C=C1/C(=O)C=C[C@@H]1C/C=C\CCCC(=O)OC | 1.19 µM | 10 µM

Each compound was assayed on SF-268 CNS (assay: inhibition of tumour cell growth, NCI panel, 48 h).

Row | Structure (SMILES) | GI50 | TGI
25 | Nc1nc(Nc2cccnc2)sc1C(=O)c1ccccc1F | 3.24 µM | 25.8 µM
26 | COc1ccc2[nH]c3c4[nH]c5ccc(OC)cc5c4c4c(c3c2c1)C(=O)NC4=O | > 22 µM | > 25 µM
27 | CCOC(=O)c1c(N2CCOCC2)[nH]c(=O)c(C(c2c(Cl)cccc2Cl)c2c(O)c(C(=O)OCC)c(N3CCOCC3)[nH]c2=O)c1O |  | 22.2 µM
28 | CC/C=C\C[C@H](O)C/C=C1/C(=O)C=C[C@@H]1C/C=C\CCCC(=O)OC | 2.56 µM | 11.8 µM

The compounds below were run on HT29 colon (assay: inhibition of tumour cell growth, NCI panel, 48 h).

Row | Structure (SMILES) | GI50 | TGI
29 | Nc1nc(Nc2cccnc2)sc1C(=O)c1ccccc1F | 2.96 µM | 31.2 µM
30 | COc1ccc2[nH]c3c4[nH]c5ccc(OC)cc5c4c4c(c3c2c1)C(=O)NC4=O | > 25 µM | > 25 µM
31 | CCOC(=O)c1c(N2CCOCC2)[nH]c(=O)c(C(c2c(Cl)cccc2Cl)c2c(O)c(C(=O)OCC)c(N3CCOCC3)[nH]c2=O)c1O |  | 12.9 µM
32 | CC/C=C\C[C@H](O)C/C=C1/C(=O)C=C[C@@H]1C/C=C\CCCC(=O)OC | 1.61 µM | 3.8 µM

The compounds below were run on SF-295 CNS (assay: inhibition of tumour cell growth, NCI panel, 48 h).

Row | Structure (SMILES) | GI50 | TGI
33 | Nc1nc(Nc2cccnc2)sc1C(=O)c1ccccc1F | 2.69 µM | > 26.9 µM
34 | COc1ccc2[nH]c3c4[nH]c5ccc(OC)cc5c4c4c(c3c2c1)C(=O)NC4=O | > 15.7 µM | > 25 µM
35 | CCOC(=O)c1c(N2CCOCC2)[nH]c(=O)c(C(c2c(Cl)cccc2Cl)c2c(O)c(C(=O)OCC)c(N3CCOCC3)[nH]c2=O)c1O |  | 30.6 µM
36 | CC/C=C\C[C@H](O)C/C=C1/C(=O)C=C[C@@H]1C/C=C\CCCC(=O)OC | 2.26 µM | 5.58 µM

These compounds were tested on NCI-H23 lung (assay: inhibition of tumour cell growth, NCI panel, 48 h).

Row | Structure (SMILES) | GI50 | TGI
37 | Nc1nc(Nc2cccnc2)sc1C(=O)c1ccccc1F | 2.55 µM | 12.4 µM
38 | COc1ccc2[nH]c3c4[nH]c5ccc(OC)cc5c4c4c(c3c2c1)C(=O)NC4=O | > 14.4 µM | > 25 µM
39 | CCOC(=O)c1c(N2CCOCC2)[nH]c(=O)c(C(c2c(Cl)cccc2Cl)c2c(O)c(C(=O)OCC)c(N3CCOCC3)[nH]c2=O)c1O |  | 21.8 µM
40 | CC/C=C\C[C@H](O)C/C=C1/C(=O)C=C[C@@H]1C/C=C\CCCC(=O)OC | 1.75 µM | 4.25 µM

These compounds were tested on DU-145 prostate (assay: inhibition of tumour cell growth, NCI panel, 48 h).

Row | Structure (SMILES) | GI50 | TGI
41 | Nc1nc(Nc2cccnc2)sc1C(=O)c1ccccc1F | 3.38 µM | > 100 µM
42 | COc1ccc2[nH]c3c4[nH]c5ccc(OC)cc5c4c4c(c3c2c1)C(=O)NC4=O | > 15.1 µM | > 25 µM
43 | CCOC(=O)c1c(N2CCOCC2)[nH]c(=O)c(C(c2c(Cl)cccc2Cl)c2c(O)c(C(=O)OCC)c(N3CCOCC3)[nH]c2=O)c1O |  | 24.6 µM
44 | CC/C=C\C[C@H](O)C/C=C1/C(=O)C=C[C@@H]1C/C=C\CCCC(=O)OC | 4.07 µM | 15.2 µM

What follows are compounds tested on SF-539 CNS (assay: inhibition of tumour cell growth, NCI panel, 48 h).

Row | Structure (SMILES) | GI50 | TGI
45 | Nc1nc(Nc2cccnc2)sc1C(=O)c1ccccc1F | 1.52 µM | 3.88 µM
46 | COc1ccc2[nH]c3c4[nH]c5ccc(OC)cc5c4c4c(c3c2c1)C(=O)NC4=O | 1.31 µM | > 17 µM
47 | CCOC(=O)c1c(N2CCOCC2)[nH]c(=O)c(C(c2c(Cl)cccc2Cl)c2c(O)c(C(=O)OCC)c(N3CCOCC3)[nH]c2=O)c1O |  | 11 µM
48 | CC/C=C\C[C@H](O)C/C=C1/C(=O)C=C[C@@H]1C/C=C\CCCC(=O)OC | 2.75 µM | 7.33 µM

These compounds were tested on SK-MEL-2 melanoma (assay: inhibition of tumour cell growth, NCI panel, 48 h).

Row | Structure (SMILES) | GI50 | TGI
49 | Nc1nc(Nc2cccnc2)sc1C(=O)c1ccccc1F | 2.92 µM | 9.79 µM
50 | COc1ccc2[nH]c3c4[nH]c5ccc(OC)cc5c4c4c(c3c2c1)C(=O)NC4=O | 12.2 µM | > 25 µM
51 | CCOC(=O)c1c(N2CCOCC2)[nH]c(=O)c(C(c2c(Cl)cccc2Cl)c2c(O)c(C(=O)OCC)c(N3CCOCC3)[nH]c2=O)c1O |  | 16.2 µM
52 | CC/C=C\C[C@H](O)C/C=C1/C(=O)C=C[C@@H]1C/C=C\CCCC(=O)OC | 1.84 µM | 4.2 µM

What follows are compounds tested on OVCAR-4 ovarian (assay: inhibition of tumour cell growth, NCI panel, 48 h).

Row | Structure (SMILES) | GI50 | TGI
53 | Nc1nc(Nc2cccnc2)sc1C(=O)c1ccccc1F | 8.74 µM | 76.6 µM
54 | COc1ccc2[nH]c3c4[nH]c5ccc(OC)cc5c4c4c(c3c2c1)C(=O)NC4=O | > 25 µM | > 25 µM
55 | CCOC(=O)c1c(N2CCOCC2)[nH]c(=O)c(C(c2c(Cl)cccc2Cl)c2c(O)c(C(=O)OCC)c(N3CCOCC3)[nH]c2=O)c1O |  | 24.1 µM
56 | CC/C=C\C[C@H](O)C/C=C1/C(=O)C=C[C@@H]1C/C=C\CCCC(=O)OC | 3.48 µM | 16.2 µM

What follows are compounds tested on COLO 205 colon (assay: inhibition of tumour cell growth, NCI panel, 48 h).

Row | Structure (SMILES) | GI50 | TGI
57 | Nc1nc(Nc2cccnc2)sc1C(=O)c1ccccc1F | 1.78 µM | 4.68 µM
58 | COc1ccc2[nH]c3c4[nH]c5ccc(OC)cc5c4c4c(c3c2c1)C(=O)NC4=O | > 25 µM | > 25 µM
